ChEMBL document CHEMBL1125543, “Urea and 2-imidazolidone derivatives of the muscarinic agents oxotremorine and N-methyl-N-(1-methyl-4-pyrrolidino-2-butynyl)acetamide” (J Med Chem, 1992)

Tests used:
[1] = molecular target: T1, Muscarinic acetylcholine receptor M3 (Cavia porcellus, UniProt Q8VH26); experiment: Dissociation constant for complex with muscarinic acetylcholine receptor M3 of guinea pig ileum; format: tissue-based
[2] = molecular target: Muscarinic acetylcholine receptor M3 (Cavia porcellus) (UniProt Q8VH26); experiment: Maximum contractile response relative to carbachol (E max) in guinea pig ileum as muscarinic acetylcholine receptor M3 agonistic/antagonistic activity; format: functional, tissue-based
Chain of Muscarinic acetylcholine receptor M3 (Cavia porcellus) (Q8VH26 1-587): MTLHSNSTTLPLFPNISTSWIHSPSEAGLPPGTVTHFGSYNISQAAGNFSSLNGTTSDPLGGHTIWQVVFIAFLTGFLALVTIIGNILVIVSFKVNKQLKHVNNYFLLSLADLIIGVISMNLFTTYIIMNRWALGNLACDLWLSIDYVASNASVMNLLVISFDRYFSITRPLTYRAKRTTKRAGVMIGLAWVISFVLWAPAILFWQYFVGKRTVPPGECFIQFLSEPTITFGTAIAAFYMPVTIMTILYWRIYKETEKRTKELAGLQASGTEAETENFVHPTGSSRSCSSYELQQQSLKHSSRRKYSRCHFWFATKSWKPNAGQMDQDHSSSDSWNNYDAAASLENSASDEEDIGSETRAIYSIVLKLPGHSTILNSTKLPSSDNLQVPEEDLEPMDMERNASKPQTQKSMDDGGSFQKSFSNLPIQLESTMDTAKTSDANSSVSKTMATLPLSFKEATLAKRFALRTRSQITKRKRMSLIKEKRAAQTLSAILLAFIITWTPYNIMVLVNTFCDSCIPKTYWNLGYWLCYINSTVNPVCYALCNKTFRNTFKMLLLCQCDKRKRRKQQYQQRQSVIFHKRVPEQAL

[3] = molecular target: Muscarinic acetylcholine receptor M3 (Cavia porcellus) (UniProt Q8VH26); experiment: Relative efficacies determined with oxotremorine as the reference in guinea pig ileum, as a measure of muscarinic acetylcholine receptor M3 agonistic activity; format: functional, tissue-based
[4] = molecular target: Muscarinic acetylcholine receptor; experiment: Displacement of [3H]3-quinuclidinyl benzilate ([3H]-QNB) from muscarinic acetylcholine receptor of rat cerebral cortex; format: tissue-based
[5] = molecular target: T1, Muscarinic acetylcholine receptor M3; experiment: Muscarinic acetylcholine receptor M3 agonistic/antagonistic activity in guinea pig ileum; format: functional, tissue-based

T1 sequence (Q8VH26 whole entry): as the sequence (Q8VH26 1-587) above

| Compound | Kd [1] | Emax [2] | Efficacy [3] | Ki [4] | EC50 [5] |
| --- | --- | --- | --- | --- | --- |
| CC(C#CCN1CCCC1)N1CCCC1=O (centres undefined) | 0.091 µM | 0 | 0 | 0.059 µM | – |
| O=C1CNC(=O)N1CC#CCN1CCCC1 | 100 µM | 0.37 | 0.12 | 17.2 µM | 46.4 µM |
| O=C1CCCN1CC#CCN1CCCC1 [OXOTREMORINE] | 1.2 µM | 1 | 1 | 0.23 µM | 0.05 µM |
| CNC(=O)N(C)CC#CCN1CCCC1 | 26.4 µM | 1 | 0.53 | 15.8 µM | 2.16 µM |
| CC1CCN(CC#CCN2CCCC2)C1=O (centres undefined) | 11.5 µM | – | – | – | 0.5 µM |
| CC(C#CCN1CCCC1)N(C)C(N)=O (centres undefined) | 0.71 µM | 0 | 0 | 0.42 µM | – |
| CNC(=O)N(C)C(C)C#CCN1CCCC1 (centres undefined) | 7.5 µM | 1 | 0.18 | 4.2 µM | 2.11 µM |
| CC(C#CCN1CCCC1)N1CCNC1=O (centres undefined) | 0.48 µM | 0 | 0 | 0.64 µM | – |
| O=C1NCCN1CC#CCN1CCCC1 | 30.3 µM | 1 | 0.49 | 6.5 µM | 2.67 µM |
| O=CN1CCN(CC#CCN2CCCC2)C1=O | 20.9 µM | 1 | 0.14 | 26.4 µM | 8.6 µM |
| CN1CCN(CC#CCN2CCCC2)C1=O | 2.9 µM | 1 | 0.21 | 1.6 µM | 0.1 µM |
| C[N+](C)(C)CCOC(N)=O | – | 1 | 5.71 | – | – |
| CC(=O)N1CCN(CC#CCN2CCCC2)C1=O | – | 0 | 0 | 27.4 µM | > 300 µM |
| CC(=O)N(C)C(C)C#CCN1CCCC1 (centres undefined) | 0.24 µM | 0.83 | 0.013 | – | 0.19 µM |
| CN(CC#CCN1CCCC1)C(N)=O | 49 µM | 0.57 | 0.08 | 10.7 µM | 44.9 µM |
